Assay results reported in ChEMBL document CHEMBL5365479, “Development of Potent and Selective Coactivator-Associated Arginine Methyltransferase 1 (CARM1) Degraders” (J Med Chem, 2023).

Test system: MCF-10A
Experiment: Cytotoxicity against human MCF-10A cells assessed as reduction in cell viability at 0.5 uM incubated for 7 days by high contrast bright field microscopic analysis
Assay type: toxicity, cell-based
Settings: 168 h, time 7 day

In the case of `CNCCN1CCC(c2cc(CN(C)C(=O)c3cccc(Oc4ccc(OCC(=O)N5CCC(CN6CCC(CN7CCN(CC(=O)N[C@H](C(=O)N8C[C@H](O)C[C@H]8C(=O)N[C@@H](C)c8ccc(-c9scnc9C)cc8)C(C)(C)C)CC7)CC6)CC5)cc4)c3)ccn2)CC1`, the Activity was “Non-Toxic”.
